Test results as given in patent US4782076A, “Substituted 2,3,4,9-tetrahydro-1H-carbazole-1-acetic acid derivatives, composition and use” (American Home Products Corporation, priority 1988, dated 1988).

Assays:
[1] = system: reaction of rats to painful stimulation applied to an inflamed paw; test: Paw pressure test in the rat; format: in vivo, Male Sprague Dawley rats; conditions: po, 24 hours after Freund's adjuvant, pain threshold 1 hour later, dose which causes analgesia in 50% of the animals
Source text: A still further test used to determine the utility of the compounds of the present invention is designated: PAW PRESSURE TEST IN THE RAT
The objective of this test is to assess the potency of peripheral and central acting drugs in inhibiting the reaction of rats to painful stimulation applied to an inflamed paw.
Male Sprague Dawley rats (180-200 g) are used. The animals are fasted overnight prior to drug administration.
(§1) Drug Preparation and Administration:
(§2) Freund's Complete Adjuvant (FCA) is prepared by suspending 5 mg killed and dried Mycobacterium butyricum (Difco) in 1 mL liquid paraffin. The test compounds are dissolved or susended in 0.5% Tween 80 in distilled water according to their solubility. They are administered by gastric gavage in a volume of 0.5 mL/100 g body weight to groups of 10 animals.
Ten rats are used per group. The method is essentially that described by Randall et al, Arch. Int. Pharmacodyn. […] The force is continuously monitored by a pointer moving along a linear scale and is measured in grams. […] The pain threshold is determined 1 hour later in the inflamed paw and the normal paw of the treated and control groups. […]
Each animal which has a reading 1.5 times greater than the mean reading of the control-group will be considered as responsive to treatment. The number of animals showing an analgesic effect is then determined in each group. […]

[2] = system: phenylbenzoquinone-induced writhing in mice; test: Phenylbenzoquinone-induced writhing in mice (Phenylquinone Writhing in Mice); format: in vivo, Male Swiss albino mice; conditions: 60 min before PBQ i.p.
Method: A further test used to determine the utility of the compounds of the present invention is designated: DRUG EFFECTS ON PHENYLBENZOQUINONE-INDUCED WRITHING IN MICE
The objective of this test is to determine the ability of test drugs to inhibit the nociceptive (pain) response of mice injected with a chemical irritant. This test is a primary screen for both peripheral and centrally acting analgesic drugs.
Male Swiss albino mice (15-25 g) are used. The animals are fasted for 18 hours prior to use but have free access to water.
as §1
Drugs are dissolved or suspended according to their solubility in 0.5% Tween 80 in distilled water. They are administered by gastric lavage in a volume of 5 mL/kg. […]
A modification of the method of Siegmund et al, Proc. Soc. […] The number of writhing or abdominal squirming movements made by each mouse during the following 15 minute period is counted. The experiment is repeated with another group of 5 mice and the mean number of writhes per mouse for a group of 10 mice is calculated.
Drug treated and vehicle-treated control groups are compared and the percentage inhibition of writhing conferred by the drug is calculated: [formula] where c=mean number of writhes in the control group, and where t=mean number of writhes in the test drug group.

[3] = system: Freund's complete adjuvant-induced hind paw edema in rats; test: Preventive adjuvant edema in rats (Preventative Adjuvant Edema); format: in vivo, Male Sprague Dawley rats; conditions: 25 mg/kg, p.o., day 0, 1 and 2; edema measured day 3
Method: This test is a primary screen for anti-inflammatory drugs.
Male Sprague Dawley rats (180-200 g) are used. The animals have free access to water but food is withdrawn 18 hours before testing.
Drug Preparations and Administration:
as §2, with “complete adjuvant” for “Complete Adjuvant (FCA)”, “dissolved in distilled water” for “dissolved”, “suspended” for “susended”, “For primary screening all drugs” for “They”, “lavage at the arbitrary dosage of 25 mg/kg, p.o.” for “gavage”
The method is essentially that described by Wax et al, J. Pharmacol. Exp. Ther., 192, 166-171 (1975). Groups of rats are injected intradermally in the left hind paw with 0.1 mL of Freund's complete adjuvant. […] The injected hind paw volume is measured before the injection of adjuvant and 24 hours after the last drug administration (day 3) by means of a plethysmometer (Buxco Electronics Inc.). […]
The mean edema volume (expressed in mL±SEM) is calculated for each group and the percentage inhibition of inflammation conferred by the drug is calculated: [formula] where c is the mean edema volume for the untreated controls and t is the means edema volume for the drug treated group.

Compound | ED50 [1] | ED50 ([2]; Mus musculus, po) | % Inhibition [3] | % Inhibition ([2]; 25 mg/kg, p.o.)
C#CCC1CCC(CC)(CC(=O)O)c2[nH]c3c(CC)cccc3c21 (single isomer, unassigned; isomer a) [Example 1, 1,8-Diethyl-2,3,4,9-tetrahydro-4-(2-propynyl)-1H-carbazole-1-acetic Acid Isomer A] | 0.38 mg/kg | 6.6 mg/kg | 51% | 
C#CCC1CCC(CC)(CC(=O)O)c2[nH]c3c(CC)cccc3c21 (single isomer, unassigned; isomer b) [Example 2, 1,8-Diethyl-2,3,4,9-tetrahydro-4-(2-propynyl)-1H-carbazole-1-acetic Acid Isomer B] |  |  | 36% | 8%
